Data on 1 compound can be found in ChEMBL document CHEMBL4680318, “(S)-Erypoegin K, an isoflavone isolated from Erythrina poeppigiana, is a novel inhibitor of topoisomerase IIα: Induction of G2 phase arrest in human gastric cancer cells” (Bioorg Med Chem, 2021).

The term GI50 denotes the concentration at which growth is held to half of that of the control. Low readings indicate greater sensitivity of the cells, high ones lower sensitivity of the cells.

A short description of experiment [1]: Growth inhibition of human HBC4 cells measured after 48 hrs by sulforhodamine B assay. In kind it is functional. For orientation: The SRB assay estimates cell density from bound dye.
The nature of experiment [2]: Growth inhibition of human HBC5 cells measured after 48 hrs by sulforhodamine B assay. The experiment is classed as functional.
Experiment [3] relates to MCF7. The experiment is described as follows: Growth inhibition of human MCF7 cells measured after 48 hrs by sulforhodamine B assay. The experiment is classed as functional.
Experiment [4] has as its system MDA-MB-231. The experiment is described as follows: Growth inhibition of human MDA-MB-231 cells measured after 48 hrs by sulforhodamine B assay. The experiment is classed as functional.
The test system of experiment [5] is SF-268. The experiment is described as follows: Growth inhibition of human SF-268 cells measured after 48 hrs by sulforhodamine B assay. In kind it is functional.
Experiment [6] deals with SF-295. The experiment in a line: Growth inhibition of human SF-295 cells measured after 48 hrs by sulforhodamine B assay. The experiment is classed as functional.
For experiment [7], the system named is SF-539. The experiment is described as follows: Growth inhibition of human SF-539 cells measured after 48 hrs by sulforhodamine B assay. In kind it is functional.
The test system of experiment [8] is SNB-75. The experiment is described as follows: Growth inhibition of human SNB-75 cells measured after 48 hrs by sulforhodamine B assay. In kind it is functional.
Experiment [9] deals with HT-29. The experiment in a line: Growth inhibition of human HT-29 cells measured after 48 hrs by sulforhodamine B assay. In kind it is functional.
Experiment [10] concerns DMS-114. The experiment in a line: Growth inhibition of human DMS-114 cells measured after 48 hrs by sulforhodamine B assay. The experiment is classed as functional.
For experiment [11], the system named is OVCAR-4. The experiment is described as follows: Growth inhibition of human OVCAR-4 cells measured after 48 hrs by sulforhodamine B assay. In kind it is functional.
Experiment [12] has as its system OVCAR-8. The experiment is described as follows: Growth inhibition of human OVCAR-8 cells measured after 48 hrs by sulforhodamine B assay. In kind it is functional.
Experiment [13] concerns PC-3. The experiment in a line: Growth inhibition of human PC-3 cells measured after 48 hrs by sulforhodamine B assay. The experiment is classed as functional.
The target in experiment [14] is DNA topoisomerase 2-alpha (Homo sapiens) (UniProt P11388). The experiment is described as follows: Inhibition of human DNA topoisomerase 2alpha assessed as suppression of decatenation using catenated kinetoplast DNA as substrate measured after 30 mins by ethidium bromide staining-based UV imaging analysis.
Experiment [15] deals with GCIY. The experiment in a line: Induction of apoptosis in human GCIY cells assessed as activation of caspase 3 measured after 5 to 35 hrs by fluorescence assay. In kind it is functional, cell-based. The settings on record: dose 1-10 µM, time 5-35 hrs.
Experiment [16] has as its system MKN-1. The experiment is described as follows: Induction of apoptosis in human MKN-1 cells assessed as activation of caspase 3 measured after 5 to 35 hrs by fluorescence assay. The settings on record: dose 1-10 µM, time 5-35 hrs. The experiment is classed as functional, cell-based.
Experiment [17] deals with MKN-1. The experiment is described as follows: Induction of apoptosis in human MKN-1 cells assessed as activation of caspase 9 measured after 5 to 35 hrs by fluorescence assay. The experiment is classed as functional, cell-based. The settings on record: dose 1-10 µM, time 5-35 hrs.
Experiment [18] concerns GCIY. The experiment is described as follows: Cell cycle arrest in human GCIY cells assessed as accumulation at S phase at 0.1 uM measured after 24 hrs by propidium iodide staining based Muse cell analyzer (reference value: 25.7 +/- 0.7 %). In kind it is functional.
For experiment [19], the system named is GCIY. The experiment is described as follows: Cell cycle arrest in human GCIY cells assessed as accumulation at G2/M phase at 0.1 uM measured after 24 hrs by propidium iodide staining based Muse cell analyzer (reference value: 28.9 +/- 1.3 %). The experiment is classed as functional.
The subject of experiment [20] is MKN-1. The experiment in a line: Cell cycle arrest in human MKN-1 cells assessed as accumulation at G0/G1 phase at 0.1 uM measured after 24 hrs by propidium iodide staining based Muse cell analyzer (reference value: 49.6 +/- 2.6 %). The experiment is classed as functional.
In experiment [21] the test system is MKN-1. The experiment is described as follows: Cell cycle arrest in human MKN-1 cells assessed as accumulation at S phase at 0.3 uM measured after 24 hrs by propidium iodide staining based Muse cell analyzer (reference value: 15.5 +/- 0.2 %). In kind it is functional.

Active and inactive are the calls of the source. The calls are words filed in the database; no cut-off is given here. Where only a bound is given, the exact number is not on record here.

Sequence of DNA topoisomerase 2-alpha (Homo sapiens) (P11388 whole entry): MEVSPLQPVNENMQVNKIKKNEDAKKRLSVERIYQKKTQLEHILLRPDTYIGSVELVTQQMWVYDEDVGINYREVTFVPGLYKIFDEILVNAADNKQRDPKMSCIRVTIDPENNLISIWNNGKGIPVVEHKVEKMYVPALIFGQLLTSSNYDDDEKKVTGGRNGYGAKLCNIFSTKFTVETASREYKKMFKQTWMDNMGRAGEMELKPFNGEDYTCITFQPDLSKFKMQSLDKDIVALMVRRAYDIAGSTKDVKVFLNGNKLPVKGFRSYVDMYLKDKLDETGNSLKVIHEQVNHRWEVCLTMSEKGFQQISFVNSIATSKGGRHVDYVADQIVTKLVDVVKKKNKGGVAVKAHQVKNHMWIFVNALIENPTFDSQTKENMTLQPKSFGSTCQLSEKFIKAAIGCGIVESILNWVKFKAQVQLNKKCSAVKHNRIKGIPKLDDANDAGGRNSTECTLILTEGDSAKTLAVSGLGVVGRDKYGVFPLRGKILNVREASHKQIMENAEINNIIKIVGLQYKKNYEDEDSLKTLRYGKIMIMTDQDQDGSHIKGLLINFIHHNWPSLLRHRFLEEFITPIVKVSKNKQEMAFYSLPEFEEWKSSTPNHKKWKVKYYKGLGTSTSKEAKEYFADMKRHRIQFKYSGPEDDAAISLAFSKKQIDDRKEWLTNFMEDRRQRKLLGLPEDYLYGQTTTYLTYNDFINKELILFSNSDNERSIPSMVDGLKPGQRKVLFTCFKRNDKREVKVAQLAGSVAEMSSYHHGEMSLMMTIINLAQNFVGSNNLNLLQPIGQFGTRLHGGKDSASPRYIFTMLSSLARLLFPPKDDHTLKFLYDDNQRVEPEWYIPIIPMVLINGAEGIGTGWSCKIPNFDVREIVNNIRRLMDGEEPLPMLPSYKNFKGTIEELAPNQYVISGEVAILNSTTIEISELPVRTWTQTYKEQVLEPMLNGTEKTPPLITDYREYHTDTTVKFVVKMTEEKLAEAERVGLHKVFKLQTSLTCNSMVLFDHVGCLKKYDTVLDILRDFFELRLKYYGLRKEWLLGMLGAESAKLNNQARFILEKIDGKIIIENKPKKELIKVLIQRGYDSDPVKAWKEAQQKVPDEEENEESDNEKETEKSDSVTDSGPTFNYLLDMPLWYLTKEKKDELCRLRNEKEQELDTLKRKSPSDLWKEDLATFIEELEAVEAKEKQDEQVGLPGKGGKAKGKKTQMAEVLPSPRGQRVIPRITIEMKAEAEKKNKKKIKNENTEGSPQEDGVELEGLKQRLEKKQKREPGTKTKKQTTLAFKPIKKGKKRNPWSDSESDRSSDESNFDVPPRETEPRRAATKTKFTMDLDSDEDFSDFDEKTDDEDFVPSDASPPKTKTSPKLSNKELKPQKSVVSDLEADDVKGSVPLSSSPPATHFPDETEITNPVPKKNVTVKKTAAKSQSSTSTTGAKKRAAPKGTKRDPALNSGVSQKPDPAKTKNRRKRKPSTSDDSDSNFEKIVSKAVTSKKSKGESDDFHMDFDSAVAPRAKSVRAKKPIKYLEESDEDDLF

Regarding `CC(C)(O)[C@@H]1Cc2c(cc(O)c3c(=O)c(-c4ccc(O)cc4)coc23)O1`, the concentration for 50% growth inhibition (GI50) in [1] is 1740 nM; in [2], 6760 nM; in [3] it was 138 nM; in experiment [4] it was 1740 nM; in experiment [5], 457 nM; in [6] it was 275 nM. The GI50 is 347 nM in experiment [7]; 537 nM in experiment [8]; 10500 nM in [9]; 380 nM in experiment [10]; above 100000 nM in experiment [11]; 417 nM in experiment [12]. The GI50 in experiment [13] was above 100000 nM. For the same compound, the inhibition entry in [14] was “Active”. In addition, the Activity result is “Dose-dependent effect” in [15]; “Dose-dependent effect” in experiment [16]; “Dose-dependent effect” in experiment [17]; 22.4% in experiment [18]; 40.4% in experiment [19]; 24.9% in experiment [20]. Further, in experiment [21], the Activity stood at 9.5%.
